In brackets after ≈: the same amount, converted by molar mass. Where two headings read alike, the source gives them in different places.
Assays:
MCF-7 cells = assay: Cell growth inhibition test, MCF-7 cells; type: cell-based, human; conditions: for IC50: Homo sapiens, MCF7, 96 h, read-out: IC50 (concentration at which cell growth is inhibited by 50%); for IC50 / IC50 (concentration at which cell growth is inhibited by 50%): 4 days
Method: (§1) A cell growth inhibition test was performed to investigate the sensitivity of MCF-7 cells and MCF-7/MycBCRP cells to SN-38. Respective cells were seeded on 12-well plates (Iwaki) in amounts of 30,000 cells/1 mL/well. Subsequently, the drug, diluted with a medium to different concentrations, was added thereto (1 mL per well). The plates were placed in a 5% CO2 incubator and cultivation was performed at 37° C. for […]. Four days after, a cell solution in each well was added to a beaker containing a […] diluent (9.5 mL, To a Medical Electronics Co.). The number of cells was counted by means of a Sysmex CDA-500 automatic cell counter (To a Medical Electronics Co.).
(§2) A cell growth inhibition test was performed to investigate whether estradiol induces any change in sensitivity of MCF-7 cells and MCF-7/MycBCRP cells to SN-38. Respective cells were seeded on 12-well plates (Iwaki) in amounts of 30,000 cells/1 mL/well. Subsequently, the drug, diluted with a medium to different concentrations, was added thereto (1 mL per well). The final concentration of estradiol was adjusted to 0.03 nM or 3 nM. The plates were placed in a 5% CO2 incubator and cultivation was performed at 37° C. for 4 days. Four days after, a cell solution in each well was added to a beaker containing a […] diluent (9.5 mL, To a Medical Electronics Co.). The number of cells was counted by means of a Sysmex CDA-500 automatic cell counter (To a Medical Electronics Co.). In FIG. 4, the cell count is shown by “% of control,” which was obtained by dividing “the cell count as measured when the drug diluted to have different concentrations was added” by “the cell count as measured when no such drug was added.”

MCF-7/MycBCRP cells = assay: Cell growth inhibition test, MCF-7/MycBCRP cells; type: cell-based, human; conditions: for IC50: Homo sapiens, MCF7, 96 h, read-out: IC50 (concentration at which cell growth is inhibited by 50%); for IC50 / IC50 (concentration at which cell growth is inhibited by 50%): 4 days
Method: The cells were named MCF-7/MycBCRP. […] In each lane, 20 μg of protein was electrophoresed.
as §1, §2

BCRP = conditions: MCF-7 cells
Method: Western blotting was performed to investigate the effect of a steroid hormone and a female hormone on MCF-7, A549, and JEG-3 cells, which intrinsically express BCRP at high level, in terms of the expression level of BCRP. […] Afterwards, expression level of BCRP was determined through the Western blotting technique using an anti-BCRP antibody. In each lane, 30 μg of protein was electrophoresed.

p-glycoprotein = assay: Western blotting of exogenous p-glycoprotein expression in MCF-7/MDR1 cells; type: cell-based, human; conditions: estradiol 3 nM, 4 days, antibody C219

Q: `CC[C@]1(O)C[C@H]2CN(CCc3c([nH]c4ccccc34)[C@@](C(=O)OC)(c3cc4c(cc3OC)N(C=O)[C@H]3[C@@](O)(C(=O)OC)[C@H](OC(C)=O)[C@]5(CC)C=CCN6CC[C@]43[C@@H]65)C2)C1` [Vincristine, vincristine] was tested. Which IC50 (MCF-7 cells; E2 (estradiol) 0.03 nM) did it give?
A: Its IC50 is 0.64 ± 0.01 ng/mL (≈ 0.776 nM).

Q: And the IC50 (MCF-7 cells; E2 (estradiol) 3 nM)?
A: Its IC50 is 0.6 ± 0.02 ng/mL (≈ 0.727 nM).

Q: What about the IC50 (MCF-7/MycBCRP cells; E2 (estradiol) 0.03 nM) of the same compound?
A: The IC50 was 0.68 ± 0.03 ng/mL (≈ 0.824 nM).

Q: And the IC50 (MCF-7/MycBCRP cells; E2 (estradiol) 3 nM)?
A: The IC50 was 0.6 ± 0.02 ng/mL (≈ 0.727 nM).

Q: How did the “effect on expression of endogenous BCRP (in words)” value (BCRP) turn out when `CC/C(=C(/CC)c1ccc(O)cc1)c1ccc(O)cc1` [diethylstilbestrol] was run?
A: Its value is “suppressive effect”.

Q: What does the source list for `CCc1c2c(nc3ccc(O)cc13)-c1cc3c(c(=O)n1C2)COC(=O)[C@]3(O)CC` [SN-38, 7-ethyl-10-hydroxycamptothecin]?
A: sensitivity at estradiol 0.03 nM and 3 nM (in words) (MCF-7 cells): almost the same level; IC50 (concentration at which cell growth is inhibited by 50%) (MCF-7 cells; E2 (estradiol) 0.03 nM): 0.64 ± 0.06 ng/mL (≈ 1.63 nM); IC50 (concentration at which cell growth is inhibited by 50%) (MCF-7 cells; E2 (estradiol) 3 nM): 0.50 ± 0.02 ng/mL (≈ 1.27 nM); increase in sensitivity at estradiol 3 nM as compared with 0.03 nM (MCF-7/MycBCRP cells): about twice; IC50 (concentration at which cell growth is inhibited by 50%) (MCF-7/MycBCRP cells; E2 (estradiol) 0.03 nM): 2.13 ± 0.19 ng/mL (≈ 5.43 nM); IC50 (concentration at which cell growth is inhibited by 50%) (MCF-7/MycBCRP cells; E2 (estradiol) 3 nM): 1.09 ± 0.09 ng/mL (≈ 2.78 nM)

Q: With `C[C@]12CC[C@@H]3c4ccc(O)cc4CC[C@H]3[C@@H]1CC[C@@H]2O` [estradiol] as the compound, how does the “decrease of expression level of exogenous p-glycoprotein” value (p-glycoprotein) read?
A: Its value is “about 20%”.

Source: patent publication US20100291242A1, “ANTAGONIST AGAINST TOLERANCE TO ANTICANCER DRUGS” (Yoshikazu SUGIMOTO, priority 2004, published 2010)
